Biological target: T1, 11βHSD1 (Homo sapiens, UniProt P28845)
T1 construct: made in house; host or cells: Sf-21 insect cells infected with recombinant baculovirus BAC-HHSD1 (pFASTBAC1-derived pFB-hHSD1); microsome fraction
Assay: Determination of 11βHSD1 inhibitory activity (microsome fraction, cortisone to cortisole, competitive ELISA)
Type: biochemical
Conditions: microsome fraction of Reference Example 2a; 500 nM cortisone, 400 μM NADPH substrate solution; room temperature 60 min
Method: The enzyme reaction was performed in a polypropylene 96-well plate (Corning). The microsome fraction obtained in Reference Example 2a was diluted with a buffer (30 mM Tris-HCl, 1 mM EDTA, 0.1% BSA, pH 7.2) to a concentration of 100 μg/ml. A solution (2.5 μl) of the test compound in dimethyl sulfoxide was added to the obtained diluted solution (22.5 μl) and the mixture was incubated at room temperature for 5 min. A substrate solution (500 nM cortisone, 400 μM NADPH) (25 μl) was added to the obtained suspension, allowed to react at room temperature for 60 min and the reaction was quenched by the addition of 2 mM 18-β-glycyrrhetinic acid (Sigma Ltd.) solution (5 μl). The produced cortisole was quantified by the following competitive ELISA.
Anti-mouse IgG antibody (Chemicon) was suspended in 100 mM sodium phosphate buffer (pH 9.0) to a concentration of 5 μg/ml. The obtained suspension (100 μl) was added to a 96-well black plate (Maxisorp, Nunc), and incubated overnight at 4° C. to immobilize a first antibody. The plate was washed with PBS containing 0.05% Tween20 (Bio-Rad), 30% block ace (Yukijirushi) ([…]) diluted with PBS was added. After blocking at room temperature for 1 hr or more, the plate was washed with PBS containing 0.05% Tween20. Anti-cortisole antibody (assay design) (100 μl) diluted 4-fold with a buffer (30 mM Tris-HCl, 1 mM EDTA, pH 7.2) was added to the plate, and the plate was incubated at room temperature for 90 min. The plate was washed 4 times with PBS containing 0.05% Tween20, the enzyme reaction mixture (25 μl) and alkaline phosphatase conjugated cortisole (assay design) (25 μl) were added, and the plate was incubated at room temperature for 120 min. The plate was washed 4 times with PBS containing 0.05% Tween20, a luminescence substrate for alkaline phosphatase, Immun star (Enhancer plus, Bio-Rad) (50 μl) was added. The plate was incubated at room temperature for 10 min and the level of luminescence was measured by Arvo malfi label counter (Wallac). The concentration (IC50 value) of the test compound necessary for inhibiting the 11βHSD1 activity by 50% was calculated by PRISM2.01 (Graphpad Software).

T1 sequence (P28845 whole entry): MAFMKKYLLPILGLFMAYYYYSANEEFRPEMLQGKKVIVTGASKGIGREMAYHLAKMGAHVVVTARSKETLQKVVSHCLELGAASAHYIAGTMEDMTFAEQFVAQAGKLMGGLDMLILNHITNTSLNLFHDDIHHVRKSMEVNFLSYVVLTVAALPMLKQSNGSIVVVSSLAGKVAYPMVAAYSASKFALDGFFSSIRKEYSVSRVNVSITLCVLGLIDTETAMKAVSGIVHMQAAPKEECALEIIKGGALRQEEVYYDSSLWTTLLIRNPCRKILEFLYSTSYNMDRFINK

An IC50 of 85 nM was found for CN(Cc1c(Cl)cccc1Cl)C1CCN(C2CCCCC2)C1=O (stereo not shown) [Example 94A, 1-cyclohexyl-3-[N-(2,6-dichlorobenzyl)N-methylamino]pyrrolidin-2-one] in this work.
An IC50 of 26 nM was found for CC1(O)CCC(N2CCC(Cc3ccc(OCC(=O)NCc4ccc(C(F)(F)F)cc4)cc3Cl)C2=O)CC1 (single isomer, unassigned) [Example 602A, 2-(3-chloro-4-{[1-(4-hydroxy-4-methylcyclohexyl)-2-oxopyrrolidin-3-yl]methyl}phenoxy)-N-[4-(trifluoromethyl)benzyl]acetamide] in this work.
An IC50 of 7.9 nM was found for O=C1C(Cc2c(Cl)cccc2Cl)CCN1C1CCCCC1 (stereo not shown) [Example 9A, 1-cyclohexyl-3-(2,6-dichlorobenzyl)pyrrolidin-2-one] in this work.
An IC50 of 430 nM was found for CC1(O)CCC(N2CCC(Cc3ccc(Cl)cc3Cl)C2=O)CC1 (single isomer, unassigned) [Example 412A, 3-(2,4-dichlorobenzyl)-1-(4-hydroxy-4-methylcyclohexyl)pyrrolidin-2-one] in this work.
An IC50 of 9.9 nM was found for O=C1N(Cc2ccc(C(F)(F)F)cc2)CCN1c1ccc(CC2CCN(C3C4CC5CC3CC(O)(C5)C4)C2=O)c(Cl)c1 (stereo not shown) [Example 510A, 1-(3-chloro-4-{[1-(5-hydroxy-2-adamantyl)-2-oxopyrrolidin-3-yl]methyl}phenyl)-3-[4-(trifluoromethyl)benzyl]imidazolidin-2-one] in this work.
An IC50 of 19 nM was found for O=C(Nc1ccc(CO)cc1)Nc1ccc(CC2CCN(C3C4CC5CC3CC(O)(C5)C4)C2=O)c(Cl)c1 (stereo not shown) [Example 468A, N-(3-chloro-4-{[1-(5-hydroxy-2-adamantyl)-2-oxopyrrolidin-3-yl]methyl}phenyl)-N′-[4-(hydroxymethyl)phenyl]urea] in this work.
An IC50 of 98 nM was found for CC1(O)CCC(N2CCC(Cc3ccc(OCC(=O)NCc4ccc(C(F)(F)F)cc4)cc3Cl)C2=O)CC1 (single isomer, unassigned) [Example 603A, 2-(3-chloro-4-{[1-(4-hydroxy-4-methylcyclohexyl)-2-oxopyrrolidin-3-yl]methyl}phenoxy)-N-[4-(trifluoromethyl)benzyl]acetamide] in this work.
An IC50 of 130 nM was found for Cc1ccccc1CN1CCCN(Cc2c(Cl)cccc2Cl)C1=O [Example 2D, 1-(2,6-dichlorobenzyl)-3-(2-methylbenzyl)tetrahydropyrimidin-2(1H)-one] in this work.
An IC50 of 29 nM was found for CC1(O)CCC(N2CCC(Cc3ccc(Cl)cc3Cl)C2=O)CC1 (single isomer, unassigned) [Example 413A, 3-(2,4-dichlorobenzyl)-1-(4-hydroxy-4-methylcyclohexyl)pyrrolidin-2-one] in this work.
An IC50 of 150 nM was found for CC1(O)CCC(N2CCC(Cc3ccc(-c4cccc(CO)c4)cc3Cl)C2=O)CC1 (stereo not shown) [Example 654A, 3-{[3-chloro-3′-(hydroxymethyl)biphenyl-4-yl]methyl}-1-(4-hydroxy-4-methylcyclohexyl)pyrrolidin-2-one] in this work.
An IC50 of 110 nM was found for Cc1ccccc1CN1CCCC(Cc2c(Cl)cccc2Cl)C1=O (stereo not shown) [Example 5C, 3-(2,6-dichlorobenzyl)-1-(2-methylbenzyl)piperidin-2-one] in this work.
An IC50 of 37 nM was found for CS(=O)(=O)Nc1cccc(-c2ccc(CC3CCN(C4C5CC6CC4CC(O)(C6)C5)C3=O)c(Cl)c2)c1 (stereo not shown) [Example 470A, N-(3′-chloro-4′-{[1-(5-hydroxy-2-adamantyl)-2-oxopyrrolidin-3-yl]methyl}biphenyl-3-yl)methanesulfonamide] in this work.
An IC50 of 56 nM was found for COc1ccccc1CC1CCN(C2CCc3ccccc32)C1=O (single isomer, unassigned) [Example 66A, 1-(2,3-dihydro-1H-inden-1-yl)-3-(2-methoxybenzyl)pyrrolidin-2-one] in this work.
An IC50 of 46 nM was found for CC1(O)CCC(N2CCC(Cc3ccc(OCc4nc(-c5ccc(F)cc5)no4)cc3Cl)C2=O)CC1 (stereo not shown) [Example 619A, 3-(2-chloro-4-{[3-(4-fluorophenyl)-1,2,4-oxadiazol-5-yl]methoxy}benzyl)-1-(4-hydroxy-4-methylcyclohexyl)pyrrolidin-2-one] in this work.
An IC50 of 26 nM was found for CC1(O)CCC(N2CCC(Cc3c(Cl)cccc3Cl)C2=O)CC1 (single isomer, unassigned) [Example 38A, 3-(2,6-dichlorobenzyl)-1-(4-hydroxy-4-methylcyclohexyl)pyrrolidin-2-one] in this work.
An IC50 of 53 nM was found for Cc1ccccc1CN1C(=O)N(Cc2c(Cl)cccc2Cl)CC1(C)O (stereo not shown) [Example 32B, 1-(2,6-dichlorobenzyl)-4-hydroxy-4-methyl-3-(2-methylbenzyl)imidazolidin-2-one] in this work.
